According to US20040023994A1 (priority 2002, published 2004):
Marks after values point to notes of the source that are not given here.

Tests used:
HL-60(TB) = details: Leukemia, 48 h
[1] = system: Heterozygous nude CD-1 male mice; experiment: Hematology analyses in treated mice; details: i.p.
Protocol: (§1) Heterozygous nude CD-1 male mice were treated (i.p.) with multiple doses consisting of either one dose daily for three consecutive days (cis-AVTP or trans-AVTG, 21.25 μmol/kg, 6-TG, 8.5 or 21.25 μmol/kg, or vehicle; one cycle), or one dose daily for three consecutive days, repeated again five days later (cis-AVTP, trans-AVTG or 6-TG, 8.5 or 21.25 μmol/kg, or vehicle; two cycles).
(§2) The mice were sacrificed 24 h after the last treatment. Urine was collected for 24 h before initiation of treatment and every 24 h thereafter until the mice were sacrificed. Blood was collected by cardiac puncture and blood cells counted. Sections of liver, kidney, intestines, stomach and sternum were stained with hematoxylin and eosin and subjected to pathological analysis. Bone marrow smears were prepared for assessment of bone marrow cellularity. Liver function was evaluated by measuring alanine aminotransferase-(ALT) and aspartate aminotransferase (AST) activities in plasma. Kidney function was evaluated by measuring blood urea nitrogen in plasma and γ-glutamyltransferase activity and glucose levels in urine.

ACHN = details: 48 h
[2] = system: Heterozygous nude CD-1 male mice; experiment: Liver function (AST, ALT in plasma) and liver histopathology in treated mice
Protocol: as §1, §2

CC(=O)C=CSc1ncnc2nc[nH]c12 [cis-AVTP, 6-(2-acetylvinylthio) purine]
TGI (HL-60(TB)): 4.95 µM | GI50 (KM12; Homo sapiens, KM12, 48 h): 3.35 µM | CC50 (KM12; Homo sapiens, KM12, 48 h, read-out: LC50): > 100 µM | TGI (KM12; KM12, Colon, 48 h): 27.2 µM | TGI (786-0; 786-0, Renal, 48 h): 3.48 µM | GI50 (786-0; Homo sapiens, 786-0, 48 h): 0.37 µM | CC50 (786-0; Homo sapiens, 786-0, 48 h, read-out: LC50): 24.9 µM | GI50 (SNB-75; Homo sapiens, SNB-75, 48 h): 4.19 µM | CC50 (SNB-75; Homo sapiens, SNB-75, 48 h, read-out: LC50): 49.1 µM | TGI (SNB-75; SNB-75, CNS, 48 h): 18.6 µM | GI50 (SK-OV-3; Homo sapiens, SK-OV-3, 48 h): 0.11 µM | CC50 (SK-OV-3; Homo sapiens, SK-OV-3, 48 h, read-out: LC50): 33.3 µM | TGI (SK-OV-3; SK-OV-3, Ovarian, 48 h): 5.04 µM | GI50 (OVCAR-4; Homo sapiens, OVCAR-4, 48 h): 0.51 µM | CC50 (OVCAR-4; Homo sapiens, OVCAR-4, 48 h, read-out: LC50): 25.6 µM | TGI (OVCAR-4; OVCAR-4, Ovarian, 48 h): 4.06 µM | PLT ([1]; 8.5 μmol/kg, two cycles): 1160 ± 349 × 10^3 cells/μl | RBC ([1]; 8.5 μmol/kg, two cycles): 9.5 ± 0.3 × 10^6 cells/μl | WBC ([1]; 8.5 μmol/kg, two cycles): 5.9 ± 2.3 × 10^3 cells/μl | PLT ([1]; 21.25 μmol/kg, one cycle): 1644 ± 253^a × 10^3 cells/μl | RBC ([1]; 21.25 μmol/kg, one cycle): 8.9 ± 0.6^a × 10^6 cells/μl | WBC ([1]; 21.25 μmol/kg, one cycle): 8.0 ± 1.2^a × 10^3 cells/μl | PLT ([1]; 21.25 μmol/kg, two cycles): 1257 ± 335 × 10^3 cells/μl | RBC ([1]; 21.25 μmol/kg, two cycles): 9.0 ± 0.5 × 10^6 cells/μl | WBC ([1]; 21.25 μmol/kg, two cycles): 8.4 ± 1.9 × 10^3 cells/μl | change in peripheral white blood cell counts ([1]; trans-AVTG: only 21.25 μmol/kg two cycles, 6-TG: 8.5 or 21.25 μmol/kg one cycle or 21.25 μmol/kg two cycles): No change | GI50 (ACHN; Homo sapiens): 1.99 µM | CC50 (ACHN; Homo sapiens, read-out: LC50): 7.59 µM | TGI (ACHN; Renal): 3.89 µM | GI50 (SK-MEL-28; Homo sapiens, SK-MEL-28, 48 h): 1.84 µM | CC50 (SK-MEL-28; Homo sapiens, SK-MEL-28, 48 h, read-out: LC50): 9.58 µM | TGI (SK-MEL-28; SK-MEL-28, Melanoma, 48 h): 4.19 µM | GI50 (OVCAR-3; Homo sapiens, OVCAR-3, 48 h): 0.03 µM | CC50 (OVCAR-3; Homo sapiens, OVCAR-3, 48 h, read-out: LC50): 8.67 µM | TGI (OVCAR-3; OVCAR-3, Ovarian, 48 h): 0.47 µM | GI50 (K-562; Homo sapiens, K562, 48 h): 0.09 µM | CC50 (K-562; Homo sapiens, K562, 48 h, read-out: LC50): > 100 µM | TGI (K-562; K-562, Leukemia, 48 h): >100 µM | ALT ([2]; 8.5 μmol/kg, two cycles): 7.8 ± 4.0^a SF U/ml | AST ([2]; 8.5 μmol/kg, two cycles): 55.1 ± 37.5^a SF U/ml | ALT ([2]; 21.25 μmol/kg, one cycle): 2.0 ± 2.0^a,* SF U/ml | AST ([2]; 21.25 μmol/kg, one cycle): 25.5 ± 4.3^a SF U/ml | ALT ([2]; 21.25 μmol/kg, two cycles): 16.0 ± 4.3^a,# SF U/ml | AST ([2]; 21.25 μmol/kg, two cycles): 60.2 ± 30.8^a SF U/ml | TGI (CAKI-1; CAKI-1, Renal, 48 h): 0.55 µM | GI50 (CAKI-1; Homo sapiens, CAKI-1, 48 h): 0.11 µM | CC50 (CAKI-1; Homo sapiens, CAKI-1, 48 h, read-out: LC50): 2.85 µM | GI50 (SK-MEL-2; Homo sapiens, SK-MEL-2, 48 h): 0.48 µM | CC50 (SK-MEL-2; Homo sapiens, SK-MEL-2, 48 h, read-out: LC50): 40.7 µM | TGI (SK-MEL-2; SK-MEL-2, Melanoma, 48 h): 8.22 µM | TGI (HCT-116; HCT-116, Colon, 48 h): 1.89 µM | GI50 (HCT-116; Homo sapiens, HCT-116, 48 h): 0.51 µM | CC50 (HCT-116; Homo sapiens, HCT-116, 48 h, read-out: LC50): 4.73 µM | GI50 (NCI-H460; Homo sapiens, NCI-H460, 48 h): 0.68 µM | CC50 (NCI-H460; Homo sapiens, NCI-H460, 48 h, read-out: LC50): 38.6 µM | TGI (NCI-H460; NCI-H460, Non-Small Cell Lung, 48 h): 8.71 µM
